Reference: patent publication US10907212B2, “Inhibitors of cell adhesion” (Regents of the University of Minnesota, priority 2016, dated 2021)
Where no end group is shown, it is not given here.

Tests used:
[1] = test system: ovarian cancer cell aggregation and spheroid formation; experiment: Spheroid assay for peptides (visual scale +1 to +5); type: cell-based, human; settings: for Spheroid-24: 24 hrs, Control = 2; for Spheroid-24 / Spheroid-48: visual scale of +1 to +5; for Spheroid-48: 48 hrs, Control = 4
Method: Spheroids were formed from the NIH:OVCAR5 cell lines described above using the liquid overlay method. One milliliter of a single cell suspension was seeded at a concentration of 50,000 cells/ml in OptiMEM® media, into 24-well tissue culture plates coated with 0.5% Seakem agarose (in complete RPMI-1640). Plates were incubated at 37° C. in a humidified incubator with 5% CO2. At various time points up to 5 days, the plates were removed from the incubator and the spheroids were photographed with a Nikon CoolPix digital camera mounted on an Olympus CK2 inverted microscope with a 4× objective. The size of the spheroids was determined using the measure tool in Adobe Photoshop. The largest spheroids were quantified (20-90 spheroids/well), in a minimum of 8 wells, for a total of >300 spheroids per cell type.
The clinical relevance is that by blocking the formation of spheroids, the cells will be more sensitive to chemotherapy (which targets the single cells that proliferate more rapidly than spheroids).
The spheroid assay for peptides 1-30 were scored using a visual scale of +1 to +5. The controls were scored at +2 (24 hrs) and +4 (48 hrs). […] It may be harder to visually assess the size at 24 hours, since the spheroids are relatively small, but and perhaps some of the peptides are affecting cell division, and that is why the spheroids are smaller than the controls at 48 hours, but not 24 hrs (this can be easily assayed with an MTT assay).

[2] = test system: nectin 4 protein on NIH:OVCAR-5 cells; experiment: Effect of peptides on anti-Nectin-4 antibody binding to cells as determined by flow cytometry; type: cell-based, human; settings: for IgG MFI: IgG control primary antibody; for nectin-4 antibody binding compared to untreated control cells (in words): flow cytometry; for Flow binding: summary table, Nectin-4 antibody binding relative to control = 100
Method: Confluent monolayers of cells were detached from 75 cm^2 tissue culture flasks using Accutase cell dissociation buffer (Innovative Cell Technologies, San Diego, Calif.), washed, and labeled with mouse IgG or mAbs against Nectin-4 or Nectin-1 (2.5 μg/10^6 cells) in Flow Buffer [phosphate buffered saline (PBS) containing 2.5% newborn calf serum and 0.02% sodium azide] for 30 min at 4° C.. Cells were washed and incubated with goat anti-mouse IgG F(ab′)2 (Jackson ImmunoResearch, West Grove, Pa.), then washed again and incubated with streptavidin-allophycocyanin conjugate (Jackson ImmunoResearch, West Grove, Pa.) for 30 min each. Cells were washed and fixed in Flow Buffer containing 1% formaldehyde and analyzed in the University of Minnesota Flow Cytometry Resource with a BD Accuri™ C6 flow cytometer (BD Biosciences, San Jose, Calif.) using the Accuri™ software.
Briefly, NIH:OVCAR-5 cells that natively express a moderate amount of nectin 4 protein were incubated for 30 minutes in 150 μg/mL of soluble peptide in DMSO. After incubation, the cells were washed, and then triple antibody stained using mouse anti-nectin 4 (or IgG control) primary antibody, biotinylated goat anti-mouse secondary antibody, and streptavidin APC tertiary antibody. Finally, utilizing the University of Minnesota flow core's Accuri C6 flow cytometer, the relative antibody binding affinity for control and peptide-treated samples was quantitated and compared. Data was collected for each of the 57 peptides generated.

[3] = Run Two, 150 μg/mL peptide, 30 minutes, Control 2 = 49,491
[4] = Run Two, antibody binding relative to Control 2 = 100.00
[5] = Run Three, 150 μg/mL peptide, 30 minutes, Control 3 = 13,070.20
[6] = Run Three, antibody binding relative to Control 3 = 100.00
[7] = Run One, 150 μg/mL peptide, 30 minutes, Control 1 = 15,015
[8] = Run One, 150 μg/mL peptide, 30 minutes, Control 1 = 1,670
[9] = Run One, antibody binding relative to Control 1 = 100.00

Substance | Spheroid-24 [1] | Spheroid-48 [1] | nectin-4 antibody binding compared to untreated control cells (in words) ([2]; 150 μg/mL peptide) | Flow binding [2] | N4 MFI [2, 7] | IgG MFI [2, 8] | N4 MFI/IgG MFI ([2]; Run One, Control 1 = 8.99) | nectin-4 antibody binding, percent of control [2, 9] | also measured
LVPSREAHQQSLAC-NH2 (listed as Homo sapiens) [Peptide 45] | 3 |  |  |  |  |  |  |  | N4 MFI ([2]; Run Four, 150 μg/mL peptide, 30 minutes, Control 4 = 9,631.58): 9,868.29; N4 MFI/IgG MFI ([2]; Run Four, Control 4 = 9.387504873): 9.646; IgG MFI ([2]; Run Four, Control 4 = 1,026): 1023; nectin-4 antibody binding, percent of control ([2]; Run Four, antibody binding relative to Control 4 = 100): 102.8
RVDGDTLGFPPLTT-NH2 (listed as Homo sapiens) [Peptide 23] | 1 | 2 | reduction in nectin-4 antibody binding | 35% |  |  |  |  | N4 MFI [2, 3]: 18,902; N4 MFI/IgG MFI ([2]; Run Two, Control 2 = 9.46): 5.66; IgG MFI ([2]; Run Two, Control 2 = 5,233): 3,342; nectin-4 antibody binding, percent of control [2, 4]: 35.16
NVAIYNPSMGVSVL-NH2 (listed as Homo sapiens) [Peptide 34] |  |  | increased nectin-4 antibody binding | 112% |  |  |  |  | N4 MFI [2, 5]: 14,542.93; N4 MFI/IgG MFI ([2]; Run Three, Control 3 = 9.83): 9.77; IgG MFI ([2]; Run Three, Control 3 = 1330): 1489; nectin-4 antibody binding, percent of control [2, 6]: 111.19
TCVVSHPGLLQDQR-NH2 (listed as Homo sapiens) [Peptide 17] | 1 | 2 |  |  | 20,511 | 8,686 | 2.36 | 88.61 | 
TGNGIYINGRGHLV-NH2 (listed as Homo sapiens) [Peptide 29] | 3 |  | reduction in nectin-4 antibody binding | 35% |  |  |  |  | N4 MFI [2, 3]: 18,643; N4 MFI/IgG MFI ([2]; Run Two, Control 2 = 9.46): 6.04; IgG MFI ([2]; Run Two, Control 2 = 5,233): 3,087; nectin-4 antibody binding, percent of control [2, 4]: 35.15
RPSFTDGTIRLS-NH2 (listed as Homo sapiens) [Peptide 36] |  | 3 |  |  |  |  |  |  | N4 MFI [2, 5]: 13,633.18; N4 MFI/IgG MFI ([2]; Run Three, Control 3 = 9.83): 7.80; IgG MFI ([2]; Run Three, Control 3 = 1330): 1748; nectin-4 antibody binding, percent of control [2, 6]: 101.23
WTRLDGPLPSGVRV-NH2 (listed as Homo sapiens) [Peptide 22] | 1 | 3 | increased nectin-4 antibody binding | 143% |  |  |  |  | N4 MFI [2, 3]: 70,336; N4 MFI/IgG MFI ([2]; Run Two, Control 2 = 9.46): 9.82; IgG MFI ([2]; Run Two, Control 2 = 5,233): 7,160; nectin-4 antibody binding, percent of control [2, 4]: 142.74
YRGDSGEQVGQVAW-NH2 (listed as Homo sapiens) [Peptide 3] |  | 2 | reduction in nectin-4 antibody binding | 37% | 6,987 | 2,044 | 3.42 | 37.04 | 
LRNAVQADEGEYEC-NH2 (listed as Homo sapiens) [Peptide 8] | 3 |  | increased the binding of the Nectin-4 antibody to cells | 137% | 20,015 | 1,670 | 11.99 | 137.47 | spheroid size relative to the control (in words) ([1]; at 24 hrs): slightly larger spheroid size
PAGELETSDVVTVV-NH2 (listed as Homo sapiens) [Peptide 1] |  |  | reduction in nectin-4 antibody binding |  | 2,085 | 1,529 | 1.36 | 4.17 | 
ESQLNLTVMAKPTN-NH2 (listed as Homo sapiens) [Peptide 39] |  |  | reduction in nectin-4 antibody binding | 57% |  |  |  |  | N4 MFI [2, 5]: 8,719.33; N4 MFI/IgG MFI ([2]; Run Three, Control 3 = 9.83): 4.24; IgG MFI ([2]; Run Three, Control 3 = 1330): 2056; nectin-4 antibody binding, percent of control [2, 6]: 56.76
VNITEFPYTPSPPEHGRRA-NH2 (listed as Homo sapiens) [Peptide 55] |  |  |  |  |  |  |  |  | N4 MFI ([2]; Run Five, 150 μg/mL peptide, 30 minutes, Control 5 = 17,768.90): 19,498.24; N4 MFI/IgG MFI ([2]; Run Five, Control 5 = 2.142155332): 2.29; IgG MFI ([2]; Run Five, Control 5 = 8,294.87): 8,512.75; nectin-4 antibody binding, percent of control ([2]; Run Five, antibody binding relative to Control 5 = 100): 116
